Source: publication PMC9168620, “Genetic validation of Aspergillus fumigatus phosphoglucomutase as a viable therapeutic target in invasive aspergillosis” (The Journal of Biological Chemistry, 2022)
Converted amounts (≈) assume the structure as drawn. “Also recorded” adds a separate entry of the source. Read-outs that look alike come from different tables or passages of the source.

Assays:
[1] = target: T1, AfPGM (Aspergillus fumigatus, UniProt Q4WY53); assay: biochemical
T1 construct: Full length AfPGM; 6His-GST (N, cleaved yes); made in house; host or cells: E. coli BL21 (DE3) pLysS
T1 sequence (Q4WY53 whole entry): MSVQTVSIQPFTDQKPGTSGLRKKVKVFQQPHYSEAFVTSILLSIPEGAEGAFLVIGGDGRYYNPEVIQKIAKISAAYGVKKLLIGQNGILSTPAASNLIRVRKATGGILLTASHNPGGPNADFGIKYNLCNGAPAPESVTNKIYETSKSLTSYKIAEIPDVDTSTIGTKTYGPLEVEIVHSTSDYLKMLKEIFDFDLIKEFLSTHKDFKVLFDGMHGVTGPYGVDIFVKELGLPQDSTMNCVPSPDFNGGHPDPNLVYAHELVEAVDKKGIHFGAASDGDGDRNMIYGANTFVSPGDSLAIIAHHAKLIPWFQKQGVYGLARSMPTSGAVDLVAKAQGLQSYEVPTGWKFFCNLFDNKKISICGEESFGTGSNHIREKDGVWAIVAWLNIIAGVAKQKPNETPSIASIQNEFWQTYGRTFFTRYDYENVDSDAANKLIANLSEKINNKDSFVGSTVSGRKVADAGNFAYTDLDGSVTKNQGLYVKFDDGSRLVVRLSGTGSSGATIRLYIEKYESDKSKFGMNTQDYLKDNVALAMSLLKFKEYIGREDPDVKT
Description: (§1) The reaction mixture contained MOPS–NaOH (pH 7.4; 50 mM), MgSO4 (1.5 mM), NADP^+ (1 mM), G6PDH (0.01 U) from L. mesenteroides, Glc-1P (500 μM), Glc-1,6-2P (50 μM), and enzyme (5 nM). The reaction was carried out at 25 °C for 6 min in a total volume of 100 μl. Formation of NADPH was detected in real-time (every 1.5 min), measuring fluorescence signal (excitation at 360 nm; emission at 460 nm). To measure the inhibitory activity, compounds with different concentrations (3% (v/v) DMSO) were added to the reaction system. IC50 values were calculated using the product (NADPH) concentration at 6 min with 500 μM Glc-1P.
(§2) Figure S11: Representative enzyme activity assays for PGMs. Error bars represent standard deviation of three determinations. Panel A and B show the time course of PGMs and PGM mutants in which sugar recognition glutamates are mutated to glutamine. […] Values in parentheses indicate the time at which DTT (1 mM) was added.

[2] = target: T2, AfPGMC353∗ (Aspergillus fumigatus, UniProt Q4WY53, C131S/C242S/C364S); assay: G6PDH coupled assay for PGM, AfPGMC353∗ variant (C353 the sole cysteine); assay type: biochemical; conditions: IC50 AfPGMC353, AfPGMC353∗ (all other cysteines mutated to serine) 5 nM, no preincubation
T2 construct: Full length AfPGM; 6His-GST (N, cleaved yes); made in house; host or cells: E. coli BL21 (DE3) pLysS
T2 sequence (Q4WY53 whole entry C131S/C242S/C364S): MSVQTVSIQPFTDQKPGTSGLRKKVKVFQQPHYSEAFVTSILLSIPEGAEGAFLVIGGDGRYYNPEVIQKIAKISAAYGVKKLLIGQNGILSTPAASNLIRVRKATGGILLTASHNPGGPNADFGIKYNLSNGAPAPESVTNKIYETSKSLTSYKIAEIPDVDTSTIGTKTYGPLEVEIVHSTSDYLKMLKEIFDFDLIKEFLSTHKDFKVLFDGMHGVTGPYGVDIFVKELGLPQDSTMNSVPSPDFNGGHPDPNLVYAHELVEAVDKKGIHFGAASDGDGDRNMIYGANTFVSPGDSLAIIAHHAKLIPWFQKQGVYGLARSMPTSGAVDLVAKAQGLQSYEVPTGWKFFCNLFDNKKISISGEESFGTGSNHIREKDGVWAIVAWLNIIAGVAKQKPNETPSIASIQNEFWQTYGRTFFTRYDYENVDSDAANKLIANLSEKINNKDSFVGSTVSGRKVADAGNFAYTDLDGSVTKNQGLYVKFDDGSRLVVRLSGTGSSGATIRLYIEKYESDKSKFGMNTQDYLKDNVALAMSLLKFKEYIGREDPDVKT
Description: as §1

[3] = target: T3, HsPGM (Homo sapiens, UniProt P36871); assay: G6PDH coupled assay for PGM, HsPGM; assay type: biochemical
T3 construct: Full length HsPGM; 6His-GST (N, cleaved yes); made in house; host or cells: E. coli BL21 (DE3) pLysS (same protocol as AfPGM)
T3 sequence (P36871 1-562): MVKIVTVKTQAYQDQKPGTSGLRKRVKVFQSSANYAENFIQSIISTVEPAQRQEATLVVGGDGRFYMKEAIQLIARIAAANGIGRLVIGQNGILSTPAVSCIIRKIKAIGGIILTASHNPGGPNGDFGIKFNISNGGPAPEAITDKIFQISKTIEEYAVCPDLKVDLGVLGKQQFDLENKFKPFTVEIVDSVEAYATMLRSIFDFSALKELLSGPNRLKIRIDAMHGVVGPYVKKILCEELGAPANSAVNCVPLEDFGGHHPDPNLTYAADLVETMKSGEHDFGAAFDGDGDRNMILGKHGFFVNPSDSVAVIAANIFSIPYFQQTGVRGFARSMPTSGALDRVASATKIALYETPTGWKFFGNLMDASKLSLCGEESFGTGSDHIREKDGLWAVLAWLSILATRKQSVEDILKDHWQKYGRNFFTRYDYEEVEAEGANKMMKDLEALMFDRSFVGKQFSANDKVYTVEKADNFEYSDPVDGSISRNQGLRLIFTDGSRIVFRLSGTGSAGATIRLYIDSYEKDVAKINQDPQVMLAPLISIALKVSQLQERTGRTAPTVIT
Description: as §1, §2

[4] = target: T4, CaPGM (Candida albicans, UniProt A0A1D8PSA9); assay: G6PDH coupled assay for PGM, WT CaPGM; assay type: biochemical; conditions: 5 nM enzyme, no preincubation
T4 sequence (A0A1D8PSA9 1-560): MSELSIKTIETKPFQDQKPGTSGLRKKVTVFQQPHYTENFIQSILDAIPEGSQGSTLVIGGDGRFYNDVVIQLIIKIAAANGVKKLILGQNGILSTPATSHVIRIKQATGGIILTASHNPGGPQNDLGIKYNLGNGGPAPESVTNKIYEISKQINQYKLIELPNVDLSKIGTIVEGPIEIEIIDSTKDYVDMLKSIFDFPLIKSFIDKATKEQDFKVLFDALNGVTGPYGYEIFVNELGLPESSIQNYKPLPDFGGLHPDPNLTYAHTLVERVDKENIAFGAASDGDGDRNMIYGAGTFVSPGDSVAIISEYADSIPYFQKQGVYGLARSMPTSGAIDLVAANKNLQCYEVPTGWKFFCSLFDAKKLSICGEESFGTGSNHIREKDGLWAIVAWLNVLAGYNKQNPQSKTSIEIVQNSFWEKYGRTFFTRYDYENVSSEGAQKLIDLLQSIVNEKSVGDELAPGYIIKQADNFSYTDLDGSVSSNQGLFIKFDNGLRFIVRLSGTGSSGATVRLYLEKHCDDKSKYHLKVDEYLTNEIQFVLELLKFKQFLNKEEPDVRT
Description: as §1

[5] = target: T5, CaPGMC359S (Candida albicans, UniProt A0A1D8PSA9, C359S); assay: G6PDH coupled assay for PGM, CaPGM C359S mutant; assay type: biochemical; conditions: 5 nM enzyme, no preincubation
T5 sequence (A0A1D8PSA9 1-560 C359S): T4 sequence (A0A1D8PSA9 1-560)
Description: as §1

[6] = target: T6, AfPGMC353V (Aspergillus fumigatus, UniProt Q4WY53, C353V); assay: G6PDH coupled assay for PGM, AfPGM C353V mutant; assay type: biochemical; conditions: 5 nM enzyme, no preincubation
T6 construct: Full length AfPGM; 6His-GST (N, cleaved yes); made in house; host or cells: E. coli BL21 (DE3) pLysS
T6 sequence (Q4WY53 whole entry C353V): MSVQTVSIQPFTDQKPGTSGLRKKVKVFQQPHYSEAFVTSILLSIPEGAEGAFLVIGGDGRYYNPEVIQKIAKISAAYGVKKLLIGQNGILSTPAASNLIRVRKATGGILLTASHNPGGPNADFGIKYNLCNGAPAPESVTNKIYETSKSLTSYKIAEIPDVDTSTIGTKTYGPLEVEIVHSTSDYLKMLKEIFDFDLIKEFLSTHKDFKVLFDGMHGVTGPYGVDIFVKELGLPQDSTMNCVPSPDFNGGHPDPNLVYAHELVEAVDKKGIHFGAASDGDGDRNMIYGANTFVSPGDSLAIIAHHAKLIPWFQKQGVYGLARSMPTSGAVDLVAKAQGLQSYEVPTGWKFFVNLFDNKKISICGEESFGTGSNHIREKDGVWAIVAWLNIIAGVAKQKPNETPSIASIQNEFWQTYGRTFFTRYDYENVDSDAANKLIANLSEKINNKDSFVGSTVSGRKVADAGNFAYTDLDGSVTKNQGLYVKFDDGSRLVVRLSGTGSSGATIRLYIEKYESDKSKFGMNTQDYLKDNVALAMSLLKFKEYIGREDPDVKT
Description: as §1

[7] = test system: A. fumigatus; assay: Growth inhibition (MIC) of A. fumigatus; assay type: cell-based; conditions: Aspergillus fumigatus; preliminary experiments
Description: Figure S12: Limited correlation between minimal inhibitory concentrations (MIC) and IC50 values of isothiazolone derivatives against AfPGM. […] The R^2 value of linear correlation is 0.15.

[8] = target: T1, AfPGM; assay: Biolayer interferometry fragment binding; conditions: 0 to 500 µM
Description: Amino groups of lysine side chains in PGM were biotinylated (EZ-Link NHSPEG4-Biotin) with one-to-one stoichiometry (one adduct per protein molecule). Biotinylated protein molecules were loaded on streptavidin-immobilized sensors (Super Streptavidin Biosensor). BLI was carried out using an Octet Red 384 instrument (ForteBio). Screening cycles included the baseline phase (protein was incubated for 60 s in screening buffer [25 mM Hepes–NaOH (pH 7.5), 150 mM NaCl, 2% DMSO (v/v]), the association phase (protein was incubated for 60 s in wells containing 200 μM fragment compounds dissolved in the screening buffer), and the dissociation phase (protein was incubated for 60 s in the screening buffer without any fragment compounds). Sensors blocked by biocytin were utilized as a control. Fragment compounds were purchased from Maybridge (1000 fragment compounds). Fragment compounds whose signal values were higher than the median value plus three times robust SD were considered as hits. The confirmation of hits was carried out using dose-response assays. Briefly, a BLI assay was carried out with each hit in a series of concentrations (from 0 to 500 μM). Running cycles included the baseline phase (60 s in the screening buffer), the association phase (120 s in the screening buffer with fragment compounds), and the dissociation phase (120 s in the screening buffer without compounds). […]

[9] = target: T1, AfPGM; assay: AfPGM enzyme kinetics in the presence of ISFP1 (G6PDH coupled assay); assay type: biochemical
Description: As previously described, two speculated mechanisms, perturbing substrate binding or phosphoryl transfer, have been proposed based on the complex structure of CaPGM-ISFP1. […] As such, the inhibitory mechanism is likely to be a consequence of slowing the rate of phosphoryl transfer.
as §1, §2

[10] = target: T1, AfPGM; assay: Covalent modification, intact protein mass spectrometry, AfPGM; assay type: binding; conditions: AfPGM:ISFP1 1:20; one adduct per protein molecule; reversed by DTT
Description: (§3) PGM was dissolved to 20 μM in Hepes buffer (25 mM Hepes–NaOH (pH 7.5), 150 mM NaCl) and incubated with compound (protein:compound 1:20; 2% (v/v) DMSO) at 20 °C for 10 min (for AfPGM) or 4 °C overnight (for AfPGMC353∗). Excess compound molecules were removed using desalting column (CentriPure P2, Generon). PGM (20 μM) incubated with DMSO at the same condition was utilized as a control. The removal of isothiazolone adducts was carried out through the incubation with DTT (10 mM) at 20 °C for 10 min. DTT was removed using a desalting column (CentriPure P2, Generon). The ring-opened isothiazolone protein modification was confirmed using intact protein mass spectrometry.

[11] = target: T2, AfPGMC353∗; assay: Covalent modification, intact protein mass spectrometry, AfPGMC353∗; assay type: binding; conditions: AfPGMC353∗:ISFP1 1:20; single adduct on C353
Description: as §3

[12] = 50 µM ISFP1 preincubated 15 min with 5 nM enzyme, DTT 1 mM (Fig. S11G)

O=c1ccsn1-c1cccc(Cl)c1F [ISFP1]
Rescue of AfPGM activity by DTT after inhibition [1, 12]: rescued by the addition of DTT | IC50 ([1]; WT AfPGM 5 nM, no preincubation, 500 μM Glc-1P): 2 µM | IC50 [2]: 3 µM | Rescue of HsPGM activity by DTT after inhibition [3, 12]: could not be rescued by DTT treatment | IC50 ([3]; IC50 HsPGM, HsPGM 5 nM, no preincubation, > values: highest concentration at which the compound can solubilize): 80 ± 2 µM | IC50 ([3]; enzyme preincubated with compound for 15 min (Fig. S11E, F), read-out: IC50 HsPGM after preincubation): 7.5 µM | IC50 [4]: 5 µM | IC50 [5]: > 400 µM | IC50 CaPGM C359S mutant [5]: No inhibition | Inhibition of AfPGM C353V mutant [6]: does not inhibit; also recorded: not inhibited | MIC [7]: 10 µg/mL (≈ 43.5 µM) | Binding to AfPGM by BLI [8]: bound to AfPGM in a concentration-dependent manner | Decrease of AfPGM kcat ([9]; 20 μM ISFP1): 10 fold | Change of AfPGM Km ([9]; in the presence of ISFP1): remains at the same level | Increase in protein mass after incubation with compound [10]: 232 Da | Increase in protein mass after incubation with compound [11]: 232 Da
